According to paper PMC12285266, “Function and regulation of pob genes for 4-hydroxybenzoate catabolism in Agrobacterium tumefaciens” (Applied and Environmental Microbiology, 2025):

Tests used:
[1] = target: T1, PobA (Atu4544), GST-atu4544 (Agrobacterium fabrum, UniProt Q7CV80); assay: HPLC of substrate consumption and protocatechuate formation; assay type: biochemical; details: NADPH or NADH 0.4 mM, FAD 5 uM, 0.5 mM substrate, 50 mM Tris-Cl pH 7.4, 30 C; GST-tagged enzyme
T1 construct: full ORF (1,173 bp) in pGEX-4T-1, N-terminal GST tag kept, E. coli BL21(DE3), about 70 kDa with tag

[2] = target: T2, PobR (Atu4545), HIS-atu4545 (Agrobacterium fabrum, UniProt Q7CV81); assay: EMSA, effect on PobR/DNA complex formation; assay type: binding; details: FAM-labelled atu4544-atu4545 intergenic DNA; varying concentrations; pH 8.0, 25 C
T2 construct: full ORF (924 bp) in pET30a, N-terminal His tag kept, E. coli BL21(DE3)
T2 sequence (Q7CV81 1-307): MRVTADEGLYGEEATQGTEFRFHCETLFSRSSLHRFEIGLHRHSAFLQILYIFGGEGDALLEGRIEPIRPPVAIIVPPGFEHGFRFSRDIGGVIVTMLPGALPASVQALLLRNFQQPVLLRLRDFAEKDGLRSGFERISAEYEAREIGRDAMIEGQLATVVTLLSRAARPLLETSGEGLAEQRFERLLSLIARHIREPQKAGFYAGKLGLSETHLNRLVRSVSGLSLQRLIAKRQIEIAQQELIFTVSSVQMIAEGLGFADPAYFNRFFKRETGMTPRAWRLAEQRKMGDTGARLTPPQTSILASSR

[3] = target: T3, PobR (HIS-atu4545) (Agrobacterium tumefaciens C58) (UniProt Q7CV81); assay: competition; details: EMSA: per 50 mL binding buffer 0.394 g Tris-base, 0.186 g KCl, 0.019 g EDTA-2Na, 10% glycerol, 0.008 g DTT (about 65 mM Tris, 50 mM KCl, 1 mM EDTA, 1 mM DTT) …
T3 sequence: T2 sequence (Q7CV81 1-307)

T1 sequence (Q7CV80 1-390): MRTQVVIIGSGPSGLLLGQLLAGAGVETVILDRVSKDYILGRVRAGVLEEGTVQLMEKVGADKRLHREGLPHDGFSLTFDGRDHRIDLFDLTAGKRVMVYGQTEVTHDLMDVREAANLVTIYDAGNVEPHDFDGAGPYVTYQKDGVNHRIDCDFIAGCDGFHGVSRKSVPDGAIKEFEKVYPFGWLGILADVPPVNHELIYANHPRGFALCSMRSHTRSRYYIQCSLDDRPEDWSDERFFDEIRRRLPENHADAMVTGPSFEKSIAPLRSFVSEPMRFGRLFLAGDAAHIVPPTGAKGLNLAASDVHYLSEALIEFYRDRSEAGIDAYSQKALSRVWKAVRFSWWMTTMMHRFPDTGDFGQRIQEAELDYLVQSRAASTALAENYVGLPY

Compound	binding [3]	further results
O=C(O)c1ccc(O)cc1 [4-hydroxybenzoate]	–	HPLC of substrate consumption and protocatechuate formation [1]: Atu4544 (PobA) catalyzed the hydroxylation of 4-hydroxybenzoate to produce protocatechuate
O=C(O)CCCCC(=O)O [adipic acid]	–	EMSA, effect on PobR/DNA complex formation [2]: The increased adipic acid seemed to hinder the binding of the PobR/DNA probe
CATCGTGACGATCACTCCACCGATATCGCGTGAAAAGCGGAAGCCATGTTCGAAACCCGGTGGCACGATGATGGCGACCGGCGGGCGGATCGGCTCGATGCGGCCTTCCAGCAACGCATCGATCGTCGACCTGCAGGCA (double strand) [unrelated DNA (pobR-inter)]	no binding	–
CATCTCACCATCACTCCTCCGTGCGATGGTCGGATTGTGCAATTTACAGACAGAAAAGTCCATTGAGCTTGTGGCCGGTCTTGGTCAATTTCTTGACCGGAGACAAGTTCGGGAGGACATCATCGTCGACCTGCAGGCA (double strand) [unlabeled intergenic competitor]	binds	–
